From patent US20250276979A1, “SARS-COV2 MAIN PROTEASE INHIBITORS” (Gilead Sciences, Inc., priority 2024, published 2025)
Like-named read-outs stand apart in the source and are kept apart here.

Tested on: SARS-CoV-2-NLuc in A549-hACE2 cells
Assay: microbe, parasite or virus in culture
Type: cell-based
[1] = Severe acute respiratory syndrome coronavirus 2, 48 h, read-out: MPro EC50
[2] = Severe acute respiratory syndrome coronavirus 2, 48 h; read-out: MPro EC50

| SMILES | EC50 [1] | EC50 [2] |
| --- | --- | --- |
| O=C1C[C@H](n2c(=O)[nH]c3cc(-c4ccccc4Cl)sc3c2=O)CCCN1 (single isomer, unassigned) [Example 21] | 22.3 nM | – |
| O=C1C[C@@H](n2c(=O)[nH]c3cc(-c4ccccc4Cl)sc3c2=O)CCCN1 (single isomer, unassigned) [Example 22] | 155 nM | – |
| COc1ccc(Cl)c(-c2cc3[nH]c(=O)n([C@@H]4CCCNC(=O)C4)c(=O)c3s2)c1 (single isomer, unassigned) [Example 23] | 12.7 nM | – |
| COc1ccc(Cl)c(-c2cc3[nH]c(=O)n([C@H]4CCCNC(=O)C4)c(=O)c3s2)c1 (single isomer, unassigned) [Example 24] | 142 nM | – |
| COc1cc(-c2cc3[nH]c(=O)n([C@@H]4CC(=O)NC[C@@H](C)C4)c(=O)c3s2)c(Cl)cc1F (single isomer, unassigned) [Example 53] | – | 34 nM |
| COc1cc(-c2cc3[nH]c(=O)n([C@@H]4CC(=O)NC[C@H](C)C4)c(=O)c3s2)c(Cl)cc1F (single isomer, unassigned) [Example 54] | – | 20.4 nM |
| O=C1CC(n2c(=O)[nH]c3cc(-c4ccccc4Cl)sc3c2=O)CCN1 (stereo not shown) [Example 1, 6-(2-chlorophenyl)-3-(2-oxopiperidin-4-yl)thieno[3,2-d]pyrimidine-2,4(1H,311)-dione] | – | 255 nM |
| O=C1C[C@H](n2c(=O)[nH]c3cc(-c4ccccc4Cl)sc3c2=O)CN1 [Example 2, 6-(2-chlorophenyl)-3-[(3S)-5-oxopyrrolidin-3-yl]-1H-thieno[3,2-d]pyrimidine-2,4-dione] | – | 35500 nM |
| O=C1C[C@@H](n2c(=O)[nH]c3cc(-c4ccccc4Cl)sc3c2=O)CN1 [Example 3, 6-(2-chlorophenyl)-3-[(3R)-5-oxopyrrolidin-3-yl]-1H-thieno[3,2-d]pyrimidine-2,4-dione] | – | 6830 nM |
| O=C1C[C@H](n2c(=O)[nH]c3cc(-c4ccccc4Cl)sc3c2=O)CCN1 [Example 4, (R)-6-(2-chlorophenyl)-3-(2-oxopiperidin-4-yl)thieno[3,2-d]pyrimidine-2,4(1H,3H)-dione] | – | 978 nM |
| O=C1C[C@@H](n2c(=O)[nH]c3cc(-c4ccccc4Cl)sc3c2=O)CCN1 [Example 5, (S)-6-(2-chlorophenyl)-3-(2-oxopiperidin-4-yl)thieno[3,2-d]pyrimidine-2,4(1H,3H)-dione] | – | 92.7 nM |
| O=C1C[C@H](n2c(=O)[nH]c3cc(-c4ccccc4Cl)ccc3c2=O)CCN1 [Example 6, (R)-7-(2-chlorophenyl)-3-(2-oxopiperidin-4-yl)quinazoline-2,4(1H,3H)-dione] | – | 29900 nM |
| COc1ccc(Cl)c(-c2cc3[nH]c(=O)n(C4CCNC(=O)C4)c(=O)c3s2)c1 (stereo not shown) [Example 7, 6-(2-chloro-5-methoxy-phenyl)-3-(2-oxo-4-piperidyl)-1H-thieno[3,2-d]pyrimidine-2,4-dione] | – | 77.1 nM |
| O=C1CC(n2c(=O)[nH]c3cc(-c4ccccc4Cl)sc3c2=O)CCCN1 (stereo not shown) [Example 8, 6-(2-chlorophenyl)-3-(2-oxoazepan-4-yl)thieno[3,2-d]pyrimidine-2,4(1H,3H)-dione] | – | 61.9 nM |
| O=C1CC(n2c(=O)[nH]c3cc(-c4ccccc4Cl)ccc3c2=O)CCCN1 (stereo not shown) [Example 9, 7-(2-chlorophenyl)-3-(2-oxoazepan-4-yl)quinazoline-2,4(1H,3H)-dione] | – | 4850 nM |
| Cc1cc(-c2cccc(Cl)c2-c2cc3[nH]c(=O)n(C4CCNC(=O)C4)c(=O)c3s2)cnn1 (stereo not shown) [Example 10, 6-(2-chloro-6-(6-methylpyridazin-4-yl)phenyl)-3-(2-oxopiperidin-4-yl)thieno[3,2-d]pyrimidine-2,4(1H,3H)-dione] | – | 5500 nM |
| Cc1cc(-c2cccc(Cl)c2-c2cc3[nH]c(=O)n(C4CCNC(=O)C4)c(=O)c3s2)cn2ncnc12 (stereo not shown) [Example 11, 6-(2-chloro-6-(8-methyl-[1,2,4]triazolo[1,5-a]pyridin-6-yl)phenyl)-3-(2-oxopiperidin-4-yl)thieno[3,2-d]pyrimidine-2,4(1H,3H)-dione] | – | 1210 nM |
| Cn1cc(-c2cccc(Cl)c2-c2cc3[nH]c(=O)n(C4CCNC(=O)C4)c(=O)c3s2)c(C(F)(F)F)n1 (stereo not shown) [Example 12, 6-(2-chloro-6-(1-methyl-3-(trifluoromethyl)-1H-pyrazol-4-yl)phenyl)-3-(2-oxopiperidin-4-yl)thieno[3,2-d]pyrimidine-2,4(1H,3H)-dione] | – | 752 nM |
| O=C1CC(n2c(=O)[nH]c3cc(-c4c(Cl)cccc4-c4ccc5c(c4)OC(F)(F)O5)sc3c2=O)CCN1 (stereo not shown) [Example 13, 6-(2-chloro-6-(2,2-difluorobenzo[d][1,3]dioxol-5-yl)phenyl)-3-(2-oxopiperidin-4-yl)thieno[3,2-d]pyrimidine-2,4(1H,3H)-dione] | – | 157 nM |

| SMILES | EC50 [1] | EC50 [2] |
| --- | --- | --- |
| COc1cc(-c2cc3[nH]c(=O)n(C4CCNC(=O)C4)c(=O)c3s2)c(Cl)cc1F (stereo not shown) [Example 14, 6-(2-chloro-4-fluoro-5-methoxyphenyl)-3-(2-oxopiperidin-4-yl)thieno[3,2-d]pyrimidine-2,4(1H,3H)-dione] | – | 318 nM |
| COc1cnc(Cl)c(-c2cc3[nH]c(=O)n(C4CCNC(=O)C4)c(=O)c3s2)c1 (stereo not shown) [Example 15, 6-(2-chloro-5-methoxypyridin-3-yl)-3-(2-oxopiperidin-4-yl)thieno[3,2-d]pyrimidine-2,4(1H,3H)-dione] | – | 18600 nM |
| COc1cc(-c2cc3[nH]c(=O)n([C@H]4CCNC(=O)C4)c(=O)c3s2)c(Cl)cc1F [Example 16, (S)-6-(2-chloro-4-fluoro-5-methoxyphenyl)-3-(2-oxopiperidin-4-yl)thieno[3,2-d]pyrimidine-2,4(1H,3H)-dione] | – | 222 nM |
| COc1ccc(Cl)c(-c2cc3[nH]c(=O)n([C@H]4CCNC(=O)C4)c(=O)c3s2)c1 [Example 17, (S)-6-(2-chloro-5-methoxyphenyl)-3-(2-oxopiperidin-4-yl)thieno[3,2-d]pyrimidine-2,4(1H,3H)-dione] | – | 84.6 nM |
| COc1cc(Cl)c(-c2cc3[nH]c(=O)n([C@H]4CCNC(=O)C4)c(=O)c3s2)cc1OC [Example 18, (S)-6-(2-chloro-4,5-dimethoxyphenyl)-3-(2-oxopiperidin-4-yl)thieno[3,2-d]pyrimidine-2,4(1H,3H)-dione] | – | 1150 nM |
| Cc1noc(C)c1-c1cc2[nH]c(=O)n([C@H]3CCNC(=O)C3)c(=O)c2s1 [Example 19, (S)-6-(3,5-dimethylisoxazol-4-yl)-3-(2-oxopiperidin-4-yl)thieno[3,2-d]pyrimidine-2,4(1H,3H)-dione] | – | 35800 nM |
| COc1ccc(Cl)c(-c2cc3[nH]c(=O)n(C4CCCNC(=O)C4)c(=O)c3s2)c1 (stereo not shown) [Example 20, 6-(2-chloro-5-methoxyphenyl)-3-(2-oxoazepan-4-yl)thieno[3,2-d]pyrimidine-2,4(1H,3H)-dione] | – | 56.4 nM |
| COc1ccc(C#N)c(-c2cc3[nH]c(=O)n(C4CCCNC(=O)C4)c(=O)c3s2)c1 (stereo not shown) [Example 25, 2-(2,4-dioxo-3-(2-oxoazepan-4-yl)-1,2,3,4-tetrahydrothieno[3,2-d]pyrimidin-6-yl)-4-methoxybenzonitrile] | – | 432 nM |
| COc1ccc(C#N)c(-c2cc3[nH]c(=O)n([C@H]4CCNC(=O)C4)c(=O)c3s2)c1 [Example 26, (S)-2-(2,4-dioxo-3-(2-oxopiperidin-4-yl)-1,2,3,4-tetrahydrothieno[3,2-d]pyrimidin-6-yl)-4-methoxybenzonitrile] | – | 2120 nM |
| COc1ccc(Cl)c(-c2ccc3c(=O)n(C4CCCNC(=O)C4)c(=O)[nH]c3c2)c1 (stereo not shown) [Example 27, 7-(2-chloro-5-methoxyphenyl)-3-(2-oxoazepan-4-yl)quinazoline-2,4(1H,3H)-dione] | – | 646 nM |
| COc1ccc(Cl)c(-c2cc3c(s2)c(=O)n([C@@H]2CCCNC(=O)C2)c(=O)n3CC#N)c1 [Example 28, (R)-2-(6-(2-chloro-5-methoxyphenyl)-2,4-dioxo-3-(2-oxoazepan-4-yl)-3,4-dihydrothieno[3,2-d]pyrimidin-1(2H)-yl)acetonitrile] | – | 5.87 nM |
| COc1ccc(Cl)c(-c2cc3c(s2)c(=O)n([C@@H]2CCCNC(=O)C2)c(=O)n3CCC#N)c1 [Example 29, (R)-3-(6-(2-chloro-5-methoxyphenyl)-2,4-dioxo-3-(2-oxoazepan-4-yl)-3,4-dihydrothieno[3,2-d]pyrimidin-1(2H)-yl)propanenitrile] | – | < 5.64 nM |
| COc1cc(-c2cc3[nH]c(=O)n([C@@H]4CCCNC(=O)C4)c(=O)c3s2)c(Cl)cc1F [Example 30, (R)-6-(2-chloro-4-fluoro-5-methoxyphenyl)-3-(2-oxoazepan-4-yl)thieno[3,2-d]pyrimidine-2,4(1H,3H)-dione] | – | 7.73 nM |
| COc1cc(-c2cc3[nH]c(=O)n([C@H]4CCCNC(=O)C4)c(=O)c3s2)c(Cl)cc1F [Example 31, (S)-6-(2-chloro-4-fluoro-5-methoxyphenyl)-3-(2-oxoazepan-4-yl)thieno[3,2-d]pyrimidine-2,4(1H,3H)-dione] | – | 51.2 nM |
| COc1cc(-c2cc3c(s2)c(=O)n([C@@H]2CCCNC(=O)C2)c(=O)n3C)c(Cl)cc1F [Example 32, (R)-6-(2-chloro-4-fluoro-5-methoxyphenyl)-1-methyl-3-(2-oxoazepan-4-yl)thieno[3,2-d]pyrimidine-2,4(1H,3H)-dione] | – | 15.6 nM |
| COc1cc(-c2cc3c(s2)c(=O)n([C@H]2CCCNC(=O)C2)c(=O)n3C)c(Cl)cc1F [Example 33, (S)-6-(2-chloro-4-fluoro-5-methoxyphenyl)-1-methyl-3-(2-oxoazepan-4-yl)thieno[3,2-d]pyrimidine-2,4(1H,3H)-dione] | – | 747 nM |
| COc1cc(-c2cc3c(s2)c(=O)n([C@@H]2CCCNC(=O)C2)c(=O)n3CC#N)c(Cl)cc1F [Example 34, (R)-2-(6-(2-chloro-4-fluoro-5-methoxyphenyl)-2,4-dioxo-3-(2-oxoazepan-4-yl)-3,4-dihydrothieno[3,2-d]pyrimidin-1(2H)-yl)acetonitrile] | – | 3.03 nM |
| COc1cc(-c2cc3c(s2)c(=O)n([C@H]2CCCNC(=O)C2)c(=O)n3CC#N)c(Cl)cc1F [Example 35, (S)-2-(6-(2-chloro-4-fluoro-5-methoxyphenyl)-2,4-dioxo-3-(2-oxoazepan-4-yl)-3,4-dihydrothieno[3,2-d]pyrimidin-1(2H)-yl)acetonitrile] | – | 84.6 nM |
